Literature values, collected in patent US7192954B2, “Monocyclic anilide spirohydantoin CGRP receptor antagonists” (Merck & Co., Inc., priority 2003, dated 2007).
Ends that are not written are not given here.

Key:
marmoset = settings: electrical stimulation of the trigeminal ganglion
rats = settings: electrical stimulation of the dura mater, prior administration
rat = settings: trigeminal ganglion stimulation

Molecule | increase in facial blood flow (marmoset) | increase of the diameter of the middle meningeal artery (rats) | increase of facial blood flow (rat)
NCCCC[C@H](NC(=O)[C@@H](Cc1cc(Br)c(O)c(Br)c1)NC(=O)N1CCC(N2Cc3ccccc3NC2=O)CC1)C(=O)N1CCN(c2ccncc2)CC1 [BIBN4096BS] | blocked |  | 
CGRP(8–37): a peptide CGRP antagonist (VTHRLAGLLSRSGGVVKNNFVPTNVGSKAF; ends and bridges not checked; UniProt P06881 90-119, looked up, fragment) |  | blocked | inhibited
